Legend:
human CaM = assay: CaM mobility shift gel (CBD peptide binding to CaM); conditions: 200 pmol CaM; for order of binding affinity for CBD variants to CaM: densitometric analysis of attenuation of free CaM bands (I/I0 versus peptide:CaM ratio), 100 μM CaCl2, pH 7.5, triplicate gels (n=4 in Figure 5 legend); for CaM-peptide complex formation: non-denaturing, non-reducing PAGE (18% gel), peptide 0–2000 pmol, 1 h, 20 mM Tris, pH 7.5, 100 μM CaCl2, Coomassie staining
Method: Human CaM was purified essentially as described previously. CaM (200 pmol) was incubated with each peptide at several molar ratios for 1 h in 10 μl of buffer containing 20 mM Tris, pH 7.5 with 100 μM CaCl2. The sample was subjected to non-denaturing, non-reducing PAGE (18% gel) at 30 mA under high Ca^2+ conditions (100 μM free Ca^2+ in all gel buffers). Binding of peptides to CaM was visualized by Coomassie Brilliant Blue R-250 staining. The relative amount of CaM on the gel at each peptide concentration (I) was determined by densitometry and normalized to CaM in the absence of peptide (I0). The data are plotted as the mean I/I0±S.D. (n=4) versus peptide:CaM ratio.
What needs to be explained is why a similar activation of eNOS is observed with little effect on phosphorylation of Thr^495 in mutant Δ605. Thus, it is difficult at this stage to conclude the precise roles of Thr^495 dephosphorylation in the activation of eNOS. Conflicting conclusions have also been drawn from earlier observations in the role of Thr^495 phosphorylation with eNOS activation. It has been reported that eNOS activity is increased by phosphorylation of Ser^1177 despite enhanced Thr^495 phosphorylation. […] To resolve this discrepancy, we synthesized peptides representing heNOS CBD (residues 491–510) with point mutations at Thr^495 site (Figure 5A) and determined the apparent affinity of the CBD variants to CaM. Each peptide with increasing concentrations (0–2000 pmol) was incubated with purified CaM at a fixed concentration (200 pmol) in the presence of 100 μM CaCl2. The mixtures were electrophoresed on non-reducing, non-denaturing gels. […] Peptide–CaM complexes migrate as higher molecular weight bands than free CaM in the presence of calcium. […] The extent of CaM-peptide interaction was assessed by densitometric analysis of attenuation of free CaM bands in the presence of increasing concentrations of each peptide.
Figure 5 Interaction of synthetic CBD peptides with calcium/CaM (A) Peptide CBD sequences (residues 491–510, based on heNOS) with unmodified T495 (T495), phosphonull A substitution (A495, red colour), phosphomimetic substitution (D495, blue colour) and phosphorylated T495 (pT495, brown colour) are indicated. (B) The synthetic CBD variants were incubated with CaM (200 pmol) by increasing peptide:CaM molar ratios in the presence of 100 μM CaCl2 before electrophoresis. The samples were analysed on 18% non-denaturing gels and visualized with Coomassie Brilliant Blue R-250. Representative Coomassie Brilliant Blue-stained gels of samples containing CaM and increasing molar ratios of T495, A495, D495 and pT495 are shown. The first lane in each gel contains CaM only, i.e., CBD/CaM ratio is 0. The rest CBD/CaM ratios were 0.1:1 (2nd lane), 0.2:1 (3rd lane), 0.4:1 (4th lane), 0.8:1 (5th lane), 1.6:1 (6th lane), 3.2:1 (7th lane), 6.4:1 (8th lane) and 12.8:1 (9th lane). CBD–CaM complexes and free CaM are denoted. (C) The relative amount of CaM on the gel at each peptide concentration (I) was determined by densitometry and normalized to CaM in the absence of peptide (I0). The data are plotted as the mean I/I0±S.D. (n=4) versus peptide:CaM ratio.

eNOS [1] = assay: Inhibition of eNOS oxygenase activity (L-[^3H]citrulline formation) by CBD peptides; assay type: biochemical, human; conditions: 10 μM peptide; for inhibition of L-citrulline formation: relative to rate without peptide, mean of triplicate experiments; for order of inhibitory potency to eNOS activity: inter-domain electron transfer (citrulline formation): same order stated for CaM binding affinity
Method: (§1) The expression and purification of eNOS from Sf21 cells was carried out essentially same as previously reported. The inhibition of eNOS oxygenase activity by unmodified or modified CBDs was tested at 37°C for 4 min by measuring L-[^3H]citrulline formation in a mixture containing 25 mM Tris, pH 7.5, 100 mM NaCl, 0.5 μM CaM, 0.2 mM EDTA, 0.3 mM CaCl2, 100 μM β-NADPH, 10 μM H4B, 20 μM L-arginine, 1 μCi of L-[^3H]arginine, 100 nM eNOS, and in the presence or absence of 10 μM of each peptide. Cytochrome c reduction was determined at room temperature (25°C) in a reaction mixture containing 25 mM Tris–HCl, pH 7.5, 100 mM NaCl, 10% glycerol, 50 μM cytochrome c, 0.5 μM CaM, 100 μM CaCl2 and 100 μM β-NADPH in the presence or absence of 10 μM of each peptide. The reaction was initiated by addition of 50 nM eNOS and monitored at 550 nm in a GE geneQuant100 spectrophotometer. Activity was determined using a ΔE550=21 mM^−1cm^−1. An assay in the absence of CaM was carried out to serve as baseline reference.
(§2) Figure 6 Evaluation of inhibitory potency of CBD variants on eNOS activity Modified or unmodified CBD peptides were assessed for their ability to inhibit (A) citrulline formation activity and (B) Cytochrome c reduction. CR denotes a complete reaction mixture; CR-CaM denotes omission of CaM from the complete reaction mixture; CR+T495 indicates the addition of 10 μM of unmodified CBD (T495) to the complete reaction mixture; CR+A495 denotes the addition of 10 μM of phosphonull CBD (A495) to the complete reaction mixture; CR+D495 indicates the addition of 10 μM of phosphomimetic CBD (D495) to the complete reaction mixture; CR+pT495 denotes the addition of 10 μM of phosphorylated CBD (pT495) to the complete reaction mixture. The complete reaction mixture for L-[^3H]citrulline formation contains 25 mM Tris, pH 7.5, 100 mM NaCl, 0.5 μM CaM, 0.2 mM EDTA, 0.3 mM CaCl2, 100 μM β-NADPH, 10 μM H4B, 20 μM L-arginine, 1 μCi of L-[^3H]arginine, 100 nM eNOS. The complete reaction mixture for cytochrome c reduction contains 25 mM Tris–HCl, pH 7.5, 100 mM NaCl, 10% glycerol, 50 μM cytochrome c, 0.5 μM CaM, 100 μM CaCl2 and 100 μM β-NADPH. The catalytic activity was normalized to give percentages relative to the reaction rate in the absence of each peptide. Each bar represents mean±S.D. of triplicate experiments. Under these conditions, the activities for eNOS bound to CaM were 12±2/min for citrulline formation, and 295±15/min for cytochrome c reduction. Data are presented as means±S.D.*denotes P<0.05, ** P<0.01, NS, not significant difference as compared with that in the absence of synthetic CBD peptides. Each experiment was performed in triplicate and repeated three times.

eNOS [2] = assay: Inhibition of eNOS reductase activity (cytochrome c reduction) by CBD peptides; assay type: biochemical, human; conditions: 10 μM peptide; for inhibition of cytochrome c reductase activity / effect on cytochrome c reduction (electron transfer within reductase domain), in words: 50 nM eNOS, 0.5 μM CaM, 100 μM CaCl2, 50 μM cytochrome c, 100 μM β-NADPH, pH 7.5, 25°C, 550 nm; for inhibition of cytochrome c reductase activity: relative to rate without peptide, mean of triplicate experiments; for order of inhibitory potency to eNOS activity: intra-domain electron transfer (cytochrome c reduction): same order stated for CaM binding affinity
Method: as §1, §2

[3] = 100 nM eNOS, 0.5 μM CaM, 0.3 mM CaCl2, 20 μM L-arginine, pH 7.5, 37°C, 4 min

| order of binding affinity for CBD variants to CaM (human CaM) | CaM-peptide complex formation (human CaM) | inhibition of L-citrulline formation (eNOS [1]; [3]) [%] | order of inhibitory potency to eNOS activity: inter-domain electron transfer (citrulline formation) (eNOS [1]) | inhibition of cytochrome c reductase activity (eNOS [2]) [%] | order of inhibitory potency to eNOS activity: intra-domain electron transfer (cytochrome c reduction) (eNOS [2]) | Substance | effect on cytochrome c reduction (electron transfer within reductase domain), in words (eNOS [2]) | effect on eNOS oxygenase activity (citrulline formation), in words (eNOS [1]; [3]) |
| --- | --- | --- | --- | --- | --- | --- | --- | --- |
| T495>A495>D495>pT495 | also showed CaM-peptide binding | 70 | T495>A495>D495>pT495 | 90 | T495>A495>D495>pT495 | TRKKA^495FKEVANAVKISASLM [A495, phospho-null CBD peptide, heNOS residues 491–510] |  |  |
| T495>A495>D495>pT495 | also showed CaM-peptide binding | 20 | T495>A495>D495>pT495 | 75 | T495>A495>D495>pT495 | TRKKD^495FKEVANAVKISASLM [D495, phosphomimetic CBD peptide, heNOS residues 491–510] |  |  |
| T495>A495>D495>pT495 | nearly no detectable peptide-CaM complex |  | T495>A495>D495>pT495 |  | T495>A495>D495>pT495 | TRKKpT^495FKEVANAVKISASLM [pT495, phosphorylated CBD peptide, heNOS residues 491–510] | virtually no inhibition on electron transfer within reductase domain | did not interfere with eNOS oxygenase activity |

| Substance | order of binding affinity for CBD variants to CaM (human CaM) | CaM-peptide complex formation (human CaM) | inhibition of L-citrulline formation (eNOS [1]; [3]) [%] | order of inhibitory potency to eNOS activity: inter-domain electron transfer (citrulline formation) (eNOS [1]) | inhibition of cytochrome c reductase activity (eNOS [2]) [%] | order of inhibitory potency to eNOS activity: intra-domain electron transfer (cytochrome c reduction) (eNOS [2]) | effect on cytochrome c reduction (electron transfer within reductase domain), in words (eNOS [2]) | effect on eNOS oxygenase activity (citrulline formation), in words (eNOS [1]; [3]) |
| --- | --- | --- | --- | --- | --- | --- | --- | --- |
| TRKKT^495FKEVANAVKISASLM [T495, Unmodified CBD peptide, heNOS residues 491–510] | T495>A495>D495>pT495 | exhibited increases in CaM–peptide complex bands and reciprocal attenuation of free CaM bands | 87 | T495>A495>D495>pT495 |  | T495>A495>D495>pT495 | inhibits the activity completely |  |
